Where two headings read alike, the source gives them in different places.
Legend:
70 kDa PKC-λ/ι = target: T1, 70 kDa PKC-λ/ι (Mus musculus, UniProt Q62074); test: 70 kDa PKC-λ/ι activity (p-thr-555/560-aPKC, Western) in brain and liver of normal mice given ICAP nasally or IV; format: in vivo
T1 construct: from tissue; host or cells: mouse brain and liver
T1 sequence (Q62074 1-595): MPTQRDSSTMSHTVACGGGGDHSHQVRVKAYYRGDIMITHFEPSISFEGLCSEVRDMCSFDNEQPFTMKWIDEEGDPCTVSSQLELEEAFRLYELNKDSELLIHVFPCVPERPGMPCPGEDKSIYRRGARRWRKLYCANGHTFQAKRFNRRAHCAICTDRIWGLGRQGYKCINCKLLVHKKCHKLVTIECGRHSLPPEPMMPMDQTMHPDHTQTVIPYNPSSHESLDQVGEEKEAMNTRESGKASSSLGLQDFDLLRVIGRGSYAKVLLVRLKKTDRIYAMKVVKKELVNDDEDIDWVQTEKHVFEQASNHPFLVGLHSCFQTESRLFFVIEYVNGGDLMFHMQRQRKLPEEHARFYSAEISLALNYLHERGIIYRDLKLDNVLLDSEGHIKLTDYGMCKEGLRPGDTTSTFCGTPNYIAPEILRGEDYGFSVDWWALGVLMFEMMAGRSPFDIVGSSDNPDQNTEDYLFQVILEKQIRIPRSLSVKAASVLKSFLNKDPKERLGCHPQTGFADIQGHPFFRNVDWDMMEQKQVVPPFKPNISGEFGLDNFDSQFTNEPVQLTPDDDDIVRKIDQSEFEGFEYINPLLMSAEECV

50 kDa PKMζ = target: T2, 50 kDa PKMζ (Mus musculus, UniProt Q02956); test: 50 kDa PKMζ activity in brain of normal mice given nasal ICAP; format: in vivo; details: 100 mg/kg/day, 3 weeks
T2 construct: from tissue; host or cells: mouse brain
T2 sequence (Q02956 1-409 isoform Q02956-2): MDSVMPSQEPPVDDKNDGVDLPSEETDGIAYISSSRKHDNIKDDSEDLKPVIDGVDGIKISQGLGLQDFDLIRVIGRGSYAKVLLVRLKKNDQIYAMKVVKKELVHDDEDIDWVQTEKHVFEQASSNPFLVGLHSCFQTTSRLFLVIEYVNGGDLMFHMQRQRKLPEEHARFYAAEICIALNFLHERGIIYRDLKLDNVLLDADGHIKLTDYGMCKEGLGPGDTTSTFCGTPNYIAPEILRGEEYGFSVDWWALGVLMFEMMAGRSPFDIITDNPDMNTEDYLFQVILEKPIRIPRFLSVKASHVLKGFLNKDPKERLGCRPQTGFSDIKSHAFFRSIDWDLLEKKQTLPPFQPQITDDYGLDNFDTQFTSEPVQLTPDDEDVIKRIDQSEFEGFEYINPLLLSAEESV

[1] = IV and PO, 200 mg/kg body weight; cited from earlier work
[2] = Distribution and passage of the blood brain barrier; format: in vivo; details: published and prelim PK/PD studies
Experimental: aPKC Inhibitors. We identified by HTS compounds that target the substrate-binding site of aPKCs and potently (IC50s10-30 nM) inhibit recombinant PIP3-dependent aPKCs, but not DAG-dependent PKCs. Three compounds have been studied in detail: (a) 1H-imidazole-4-carboxamide, 5-amino-1-[2,3-dihydroxy-4-[(phosphono-oxy)methyl]cyclopentyl-[1R-(1a,2b,3b,4a)] […] Thus, these agents can reduce brain aPKC activity, indirectly at lower doses by inhibiting liver aPKC and correcting hyperinsulinemia in insulin-resistant states, and, at higher doses, by acting directly on brain PKC-λ/ι.

[3] = test system: BACE1 and CKs (TNF-α, IL-1β, IL-6); test: BACE1 and proinflammatory cytokine levels in APP/PS1 AD mice given oral ICAP; format: in vivo, mouse
Description: Values are Mean±SEM of results in 10 mice.
As alluded to, resting PKC-λ/ι activity was increased by approx. 40% in brains of Tg APP/PS1 AD mice, relative to normal WT mice (FIG. 17).

aPKC = details: cited from earlier work
Tg APP/PS1 AD mice = test: Memory tests (Novel Object Recognition, RAWM) in transgenic APP/PS1 AD mice given oral ICAP; format: in vivo, mouse; details: PO 100 mg/kg/day × 3 months
Experimental: Radial Arm Water Maze (RAWM) assesses learning and spatial memory and requires hippocampal and frontal cortical areas. The maze consisted of a circular pool filled with opaque water, with 6 arms radiating from a central area. On each training day, mice were released to swim and find a submerged escape platform at the end of a goal arm, utilizing extra-maze cues to form a spatial representation. On each day, there were 4 consecutive acquisition trials of no more than 1 minute each. […] If the animal made an error, it was returned to the start arm in a restart procedure. After the last acquisition trial, the animal was dried and returned to its home cage for 30 min and then given a single retention trial from the same start arm to measure short-term spatial memory.

BACE1 [4] = test: BACE1 protein and mRNA levels in brain and liver of normal mice given ICAP nasally or IV; format: in vivo, mouse
Experimental: Values are mean±SEM of 6 mice/group. P values, (ANOVA).
Values are mean±SEM of 6 mice/group.
As described, samples from mouse brains that were flash-frozen in liquid N2 and stored at −80° C. were homogenized in buffer containing 0.25M sucrose, 20 mM Tris/HCl (pH, 7.5), 2 mM EGTA, 2 mM EDTA, 1 mM phenyl-methyl-sulfonyl-fluoride, 20 μg/ml leupeptin, 10 μg/ml aprotinin, 2 mM Na4P2O7, 2 mM Na3VO4, 2 mM NaF, and 1 μM microcystin, and then supplemented with 1% TritonX-100, 0.6% Nonidet and 150 mM NaCl.
(§1) As described, western analyses were conducted with rabbit antisera, using: anti-aPKC [recognizes a C-terminal sequence in all aPKCs (Santa Cruz Biotechnologies, Santa Cruz, CA, USA)]; anti-phospho-threonine (thr)-560/555-PKC-ζ/λ/ι [recognizes a phosphopeptide sequence present in all aPKCs and indicates activation (Invitrogen, Carlsbad, CA, USA)]; anti-phospho-serine (ser)-473-Akt [recognizes a phosphopeptide sequence at 60 kDa present in all Akt's-1/2/3 and indicates activation (Cell Signaling Technologies, Danvers, MA, USA)]; anti-4 kDa-AP1-40/42 (Cell Signaling Technologies, Danvers, MA, USA); anti-mouse-70 kDa-BACE1 and anti-human-70 kDa-BACE1 (ThermoFisher); and anti-phospho-threonine (thr)-231-tau (Gene Tex, Irvine, CA, USA). Samples from all experimental groups within each study were compared on the same blots and routinely checked with loading controls. All comparisons in histograms were made relative to the mean value of the basal control group, i.e., wild-type mice consuming standard low-fat mouse chow, untreated with insulin or aPKC inhibitors, and having normal levels of aPKCs and other cellular proteins.

[5] = test system: aPKC, Akt2, AMP-activated kinase (AMPK), FoxO1; details: isolated human hepatocytes; cited from earlier work
[6] = test system: Aβ-peptides and Aβ-plaque; test: AD pathology (Aβ-peptides by ELISA, Aβ-plaque load) in transgenic APP/PS1 AD mice given ICAP; format: in vivo, mouse
PKC-λ/ι = target: T3, PKC-λ/ι (Mus musculus, UniProt Q62074); details: cited from earlier work
T3 sequence (Q62074 1-595): T1 sequence (Q62074 1-595)

PKCι and PKCζ = details: cited from earlier work
[7] = test system: non-sensitive cancer cells; details: read-out: cytotoxicity activity (IC50); cited from earlier work
CA-125 = details: oral administration, 10 patients; cited from earlier work
sensitive cancer cells = details: read-out: cytotoxicity activity (IC50); cited from earlier work
NFκB = test: Insulin-induced NFκB activity in LA1-5s neuronal cells; format: cell-based, human; details: 200 nM insulin, 24 hours; 1 μM ACPD, increasing concentrations of auranofin
Description: (§2) Cell lysates were subjected to Western analyses for phosphorylated/activated forms of aPKC, NFκB and Akt. Representative blots of indicated proteins are shown in upper bands. […] Bargrams show Mean±SEM of 3-4 determinations. Asterisks indicate P<0.05; comparison of designated group versus the uninhibited, insulin-treated group (ANOVA).
(§3) LA1-5s neuronal cells were originally obtained from non-catecholamine-producing neuroblastoma of a person and are commercially available from the European Collection of Authenticated Cell Cultures. Incubation conditions were as described.
as §1, with “Samples from all experimental groups within each study were compared on the same blots and routinely checked with loading controls. All comparisons in histograms were made relative to the mean value of the basal control group, i.e., wild-type mice consuming standard low-fat mouse chow, untreated with insulin or aPKC inhibitors, and having normal levels of aPKCs and other cellular proteins.” left out

BACE1 [8] = test: BACE1 levels in LA1-5s neuronal cells treated with insulin; format: cell-based, human; details: 200 nM insulin, 24 hours; increasing concentrations of ICAPP
Experimental: Values of BACE1 are Mean±SEM of 4 values. Asterisks indicate P<0.05 for comparison of designated group versus the untreated control group (ANOVA).
as §3, §1

[9] = PO; cited from earlier work
Akt = test: Insulin-induced Akt activation in LA1-5s neuronal cells; format: cell-based, human; details: 200 nM insulin, 24 hours
Description: as §2, §3
as §1, with “Samples from all experimental groups within each study were compared on the same blots and routinely checked with loading controls. All comparisons in histograms were made relative to the mean value of the basal control group, i.e., wild-type mice consuming standard low-fat mouse chow, untreated with insulin or aPKC inhibitors, and having normal levels of aPKCs and other cellular proteins.” left out

[10] = PO 100 mg/kg/day × 3 months, brain
[11] = nasal, 100 mg/kg/day, 3 weeks, brain
[12] = mouse, in vivo, po, 100 mg/kg/day

## NC(=O)c1ncn(C2CC(CO)C(O)C2O)c1N (centres unmarked) [ICAP]
70 kDa PKC-λ/ι; IV, 100 mg/kg/day × 7 days, normal mice, brain
  decrease of brain PKC-λ/ι (aPKC) activity: 50-60%
70 kDa PKC-λ/ι; mouse brain
  inhibition of PKC-λ versus PKMζ: inhibits PKC-λ, but not PKMζ
70 kDa PKC-λ/ι; nasal, 100 mg/kg/day, 3 weeks, normal mice, brain
  inhibition of brain 70 kDa PKC-λ/ι (aPKC) activity: 70-80%
50 kDa PKMζ
  brain 50 kDa PKMζ activity: not altered
[1]
  ICAP uptake over 24 hours, liver versus brain: substantially greater in liver than in brain
[2]
  passage of the BBB: clearly passes the BBB and enters the brain
  tissue distribution: preferentially distributes to liver
[3]; PO 100 mg/kg-bw daily, liver
  liver BACE1 levels: diminished
[3]; [10]
  brain levels of BACE1: diminished
  brain levels of CKs (TNF-α, IL-1β, IL-6): diminished
aPKC; at higher doses
  inhibition of brain aPKC: inhibit brain aPKC
aPKC; given per os (PO), nasally, SC
  effectiveness in brain: effective in brain
aPKC; intact mice, employed doses
  aPKC inhibition in liver, muscle, adipose tissue: inhibit aPKC in liver, but not in muscle or adipose tissue
Tg APP/PS1 AD mice
  memory function, Novel Object Recognition (NOR) test: restored memory functions
Tg APP/PS1 AD mice; not shown
  memory function, RAWM test: restored memory functions
BACE1 [4]; IV, 100 mg/kg/day × 7 days, brain
  decrease of brain BACE1 levels: 50-60%
BACE1 [4]; IV, 100 mg/kg/day × 7 days, liver
  decrease of liver BACE1 levels: approximately 90%
BACE1 [4]; [11]
  decrease of brain BACE1 mRNA levels: approximately 50%
  decrease of brain BACE1 protein levels: approximately 50%
[5]
  FoxO1 phosphorylation/inactivation: increase FoxO1 phosphorylation/inactivation
  inhibition of aPKC, Akt2, AMPK: inhibit aPKC but not Akt2 or AMP-activated kinase (AMPK)
[6]; PO 100 mg/kg/day × 3 months, APP/PS1 AD mice
  reduction of Aβ-plaque load: approx. 70%
[6]; [12]
  Aβ40 levels: reduced
  Aβ42 levels: reduced
[6]; nasal ICAP, APP/PS1 AD mice, not shown
  AD pathological and functional aberrations: corrected AD pathological and functional aberrations
PKC-λ/ι
  effect on LTP and LTM: lack of effect

## CC(=O)OC[C@H]1O[C@@H]([S-])[C@H](OC(C)=O)[C@@H](OC(C)=O)[C@@H]1OC(C)=O.CCP(CC)CC.[Au+] [auranofin, 1-thio-β-D-glucopyranosatotriethylphosphine gold-2,3,4,6-tetraacetate]
PKCι and PKCζ
  inhibition of PKCι and PKCζ signaling by targeting the PB1 domain: inhibits PKCι and PKCζ signaling
  insulin activation of aPKC (PB1 site): inhibit insulin activation of aPKC
[7]
  IC50: > 40 µM
CA-125
  levels of CA-125: decreased levels of CA-125 in one patient
Sensitive cancer cells
  IC50: ≤ 10 µM
NFκB
  insulin-induced increase in NFκB activity: diminished
BACE1 [8]
  insulin-induced increase in BACE1 levels: diminished
[9]
  passage of the BBB: known to cross the BBB
Akt
  insulin-induced Akt activation: not Akt activation
